Source: PubChem BioAssay AID1259411 (Chemical Carcinogenesis Research Information System (CCRIS), 2018)
Calls of active or inactive are those of the source. No rule for the calls is given here.

System: rodent carcinogenicity bioassays, tumor incidence
Test: CCRIS carcinogenicity studies
Procedure, shortened: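 Archive of carcinogenicity, mutagenicity, tumor promotion and tumor inhibition results drawn from journals, NCI reports and other sources, expert-reviewed; covers 1985-2011 and is no longer updated.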

## Cc1c2ccccc2c(C)c2c1ccc1ccccc12
Species: FISH, Strain/Sex: KING COBRA GUPPY/ MALE, FEMALE, Route: IMMERSION, Dose: 0, 0.86, 3.18, 0.90 PPB (LOW DOSE) GIVEN AS SEPARATE DOSES OVER A 4 WK PERIOD, EACH DOSE GIVEN 6 HR/D FOR 1 DAY, 0, 16.3, Dose: 0, 0.86, 3.18, 0.90 PPB (LOW DOSE) GIVEN AS SEPARATE DOSES OVER A 4 WK PERIOD, EACH DOSE GIVEN 6 HR/D FOR 1 DAY, 0, 16.3, Tumor Site: Type of Lesion: LIVER: HEPATOCELLULAR ADENOMA, HEPATOCELLULAR CARCINOMA
  carcinogen call: active; positive
Species: FISH, Strain/Sex: SHEEPSHEAD MINNOW/MALE, FEMALE, Route: IMMERSION, Dose: 0, 1, 30, 1200 PPB APPROXIMATE CONCENTRATIONS ADMINISTERED 1/WK FOR 6 OR 24 HR FOR 1 OR 2 WK (STUDY DURATION: 39 WK), Dose: 0, 1, 30, Tumor Site: Type of Lesion: LIVER: ALTERED FOCI, HEPATOCELLULAR ADENOMA OR HEPATOCELLULAR CARCINOMA
  carcinogen call: active; positive
Species: HAMSTER, Strain/Sex: SYRIAN/FEMALE, Route: TONGUE, Dose: 0, 0.10 ML OF A 0.5% ACETONE SOLUTION TO BORDER OF MIDDLE THIRD PORTION OF TONGUE 3/WK FOR 4 WK (STUDY DURATION: 11 WK)
  carcinogen call: inactive; negative
Species: HAMSTER, Strain/Sex: SYRIAN/FEMALE, Route: TONGUE, Dose: 0, 0.10 ML OF A 0.5% ACETONE SOLUTION TO BORDER OF MIDDLE THIRD PORTION OF TONGUE 3/WK FOR 6 WK (STUDY DURATION: 11 WK), Tumor Site: Type of Lesion: TONGUE: CARCINOMA
  carcinogen call: active; positive
Species: HAMSTER, Strain/Sex: SYRIAN/FEMALE, Route: TONGUE, Dose: 0, 0.10 ML OF A 0.5% ACETONE SOLUTION TO BORDER OF MIDDLE THIRD PORTION OF TONGUE 3/WK FOR 8 WK (STUDY DURATION: 11 WK), Tumor Site: Type of Lesion: TONGUE: CARCINOMA
  carcinogen call: active; positive
Species: HAMSTER, Strain/Sex: SYRIAN/MALE,FEMALE, Route: DERMAL, Dose: 80 µL OF 1% SOLN IN MINERAL OIL ONCE OR 1/WK FOR 3 WK, Tumor Site: Type of Lesion: INTEGUMENTARY SYSTEM (SKIN): PAPILLOMA, SQUAMOUS CELL CARCINOMA, ANGIOMA, MELANOTIC AND ADNEXAL TUMOR
  carcinogen call: active; positive
Species: HAMSTER, Strain/Sex: SYRIAN/MALE,FEMALE, Route: DERMAL, Dose: 80 µL OF 1% SOLN IN MINERAL OIL ONCE, Tumor Site: Type of Lesion: INTEGUMENTARY SYSTEM (SKIN): AMELANOTIC DERMAL MELANOCYTOMA
  carcinogen call: active; positive
Species: HAMSTER, Strain/Sex: SYRIAN/MALE,FEMALE, Route: SUBCUTANEOUS, Dose: 0.005-20 MG IN 1 ML OLIVE OIL ONCE, Tumor Site: Type of Lesion: INJECTION SITE: SARCOMA
  carcinogen call: active; positive
Species: MOUSE, Strain/Sex: ALBINO/MALE, Route: DERMAL, Dose: 0.05% IN OLIVE OIL OR ACETONE, 0.2 ML 2/WK, Tumor Site: Type of Lesion: INTEGUMENTARY SYSTEM (SKIN)
  carcinogen call: active; positive
Species: MOUSE, Strain/Sex: B6C3F1/MALE, Route: INTRAPERITONEAL, Dose: 0, 0.00075, 0.0015, 0.003 UMOL/G IN 10 µL/G TRIOCTANOIN ONCE ON 12 D OF AGE (STUDY DURATION: 10 MO), Dose: 0, 0.00075, 0.0015, 0.003 UMOL/G IN 10 µL/G TRIOCTANOIN ONCE ON 12 D OF AGE (STUDY DURATION: 10 MO), Tumor Site: Type of Lesion: LIVER: HEPATOMA
  carcinogen call: active; positive
Species: MOUSE, Strain/Sex: B6C3F1/MALE, Route: INTRAPERITONEAL, Dose: 0, 0.003, 0.01, 0.03 UMOL/G IN 10 µL/G TRIOCTANOIN ONCE ON 12 D OF AGE (STUDY DURATION: 8.5 MO), Dose: 0, 0.003, 0.01, 0.03 UMOL/G IN 10 µL/G TRIOCTANOIN ONCE ON 12 D OF AGE (STUDY DURATION: 8.5 MO), Tumor Site: Type of Lesion: LIVER: HEPATOMA
  carcinogen call: active; positive
Species: MOUSE, Strain/Sex: B6C3F1/MALE, Route: INTRAPERITONEAL, Dose: 0, 0.01 UMOL/G IN 10 µL/G TRIOCTANOIN ON D 12 OF AGE (STUDY DURATION: 10 MO), Tumor Site: Type of Lesion: LIVER: HEPATOMA
  carcinogen call: active; positive
Species: MOUSE, Strain/Sex: BALB/FEMALE, Route: GAVAGE, Dose: 0.5-2 MG IN ALMOND OIL 1/2 WK OR 2/WK FOR 8-10 WK, Tumor Site: Type of Lesion: OVARIES: GRANULOSA CELL TUMOR
  carcinogen call: active; positive
Species: MOUSE, Strain/Sex: BALB, Route: SUBCUTANEOUS, Dose: 30 UG IN 0.02 ML OF 1% AQ GEL SUSPENDED ONCE, Tumor Site: Type of Lesion: LUNG: ADENOMA, ADENOCARCINOMA
  carcinogen call: active; positive
Species: MOUSE, Strain/Sex: C57BL/FEMALE, Route: DERMAL, Dose: 2.5 MG OF 0.5% SOLN IN 0.5 ML OLIVE OIL 1/2 WK FOR LIFE, Tumor Site: Type of Lesion: INTEGUMENTARY SYSTEM (SKIN)
  carcinogen call: active; positive
Species: MOUSE, Strain/Sex: C57BL, Route: DERMAL, Dose: 0.5 ML OF 0.5% SOLN IN OLIVE OIL 1/2 WK FOR 6 WK, Tumor Site: Type of Lesion: OVARIES
  carcinogen call: active; positive
Species: MOUSE, Strain/Sex: C57BL, Route: DERMAL, Dose: 0.5 ML OF 0.5% SOLN IN OLIVE OIL 1/2 WK FOR 6 WK, Tumor Site: Type of Lesion: OVARIES, MAMMARY GLAND
  carcinogen call: active; positive
Species: MOUSE, Strain/Sex: CBA, Route: SUBCUTANEOUS, Dose: 30 UG IN 15 µL OF 1% AQ GEL ONCE, Tumor Site: Type of Lesion: LUNG
  carcinogen call: active; positive
Species: MOUSE, Strain/Sex: CD-1/FEMALE, Route: SUBCUTANEOUS, Dose: 20 MG/KG IN 1% GEL SOLN WITHIN 24 HR OF BIRTH, Tumor Site: Type of Lesion: LUNG: ADENOMA, ADENOCARCINOMA
  carcinogen call: active; positive
Species: MOUSE, Strain/Sex: CD-1/MALE, Route: SUBCUTANEOUS, Dose: 20 MG/KG IN 1% GEL SOLN WITHIN 24 HR OF BIRTH, Tumor Site: Type of Lesion: LUNG: ADENOMA, ADENOCARCINOMA, LIVER: ADENOMA
  carcinogen call: active; positive
Species: MOUSE, Strain/Sex: ICR, Route: SUBCUTANEOUS, Dose: 0.001, 0.01, 0.1 MG IN 0.05 ML TRICAPRYLIN, Dose: 0.001, 0.01, 0.1 MG IN 0.05 ML TRICAPRYLIN, Tumor Site: Type of Lesion: INJECTION SITE: FIBROSARCOMA, SQUAMOUS CELL CARCINOMA, SARCOMA
  carcinogen call: active; positive
Species: MOUSE, Strain/Sex: MALE,FEMALE, Route: DERMAL, Dose: 0.1 ML OF 0.1% SOLN IN ACETONE 1/WK FOR 9 WK, Tumor Site: Type of Lesion: INTEGUMENTARY SYSTEM (SKIN): PAPILLOMA, MALIGNANT PAPILLOMA
  carcinogen call: active; positive
Species: MOUSE, Strain/Sex: SENCAR/FEMALE, Route: GAVAGE, Dose: 0, 20, 60, 200 UG IN 0.1 ML CORN OIL 1/D 5 D/WK FOR 6 WK (STUDY DURATION: 53 WK), Dose: 0, 20, 60, 200 UG IN 0.1 ML CORN OIL 1/D 5 D/WK FOR 6 WK (STUDY DURATION: 53 WK), Tumor Site: Type of Lesion: LYMPHATIC SYSTEM: LYMPHOMA, MAMMARY GLAND: CARCINOMA
  carcinogen call: active; positive
Species: MOUSE, Strain/Sex: SWISS/FEMALE, Route: DERMAL, Dose: 0, 1, 4, 8 NMOL IN 100 µL ACETONE 2/WK FOR 40 WK (STUDY DURATION: 48 WK), Dose: 0, 1, 4, 8 NMOL IN 100 µL ACETONE 2/WK FOR 40 WK (STUDY DURATION: 48 WK), Tumor Site: Type of Lesion: SKIN: TUMORS
  carcinogen call: active; positive
Species: MOUSE, Strain/Sex: SWISS/FEMALE, Route: DERMAL, Dose: 20-500 UG IN ACETONE ONCE, Tumor Site: Type of Lesion: INTEGUMENTARY SYSTEM (SKIN): SQUAMOUS CELL CARCINOMA, SARCOMA, EPITHELIOMA
  carcinogen call: active; positive
Species: MOUSE, Strain/Sex: SWISS/FEMALE, Route: DERMAL, Dose: 100, 200 UG IN 50 µL ACETONE ONCE, Tumor Site: Type of Lesion: INTEGUMENTARY SYSTEM (SKIN): PAPILLOMA, CARCINOMA, SARCOMA
  carcinogen call: active; positive
Species: MOUSE, Strain/Sex: SWISS/MALE,FEMALE, Route: SUBCUTANEOUS, Dose: 0.9 MG SUSPENDED IN 0.45 ML 1% AQ GEL ONCE, Tumor Site: Type of Lesion: INJECTION SITE: FIBROSARCOMA, SQUAMOUS CELL CARCINOMA
  carcinogen call: active; positive
